Molecular target: GST tagged truncated human mutant G2019S LRRK2 (Homo sapiens (Human), UniProt Q5S007, G2019S)
Test: LRRK2 Km ATP LanthaScreen Assay
Assay type: biochemical
Details: 134 μM ATP (Km ATP), LRRKtide substrate, negative log of mean IC50 (molar)
Procedure: Unless otherwise noted, all reactions are magnetically stirred. Unless otherwise noted, when diethyl ether is used in the experiments described below, it is Fisher ACS certified material and is stabilized with BHT. Unless otherwise noted, “concentrated” and/or “solvent removed under reduced pressure” means evaporating the solvent from a solution or mixture using a rotary evaporator or vacuum pump. Unless otherwise noted, flash chromatography is carried out on a Teledyne Isco (Lincoln, NE), Analogix (Burlington, WI), or Biotage (Stockholm, SWE) automated chromatography system using a commercially available cartridge as the column. Columns may be purchased from Teledyne Isco, Analogix, Biotage, Varian (Palo Alto, CA), or Supelco (Bellefonte, PA) and are usually filled with silica gel as the stationary phase. Reversed phase preparative HPLC conditions, where used, can be found at the end of each experimental section. Aqueous solutions were concentrated on a Genevac (Ipswich, ENG) or by freeze-drying/lyophilization. Unless otherwise noted, all LRRK2 pIC50 data presented in tables refers to the LRRK2 G2019S Km ATP LanthaScreen™ assay (Life Technologies Corp., Carlsbad, CA) that is described in the Biological Assay section.
Biological Assay: LRRK2 Km ATP LanthaScreen™ Assay
Compound potency against LRRK2 kinase activity was determined using LanthaScreen™ technology from Life Technologies Corporation (Carlsbad, CA) using a GST20 tagged truncated human mutant G2019S LRRK2 in the presence of the fluorescein-labeled peptide substrate LRRKtide® (LRRK2 phosphorylated ezrin/radixin/moesin (ERM)), also from Life Technologies. The data presented for the Km ATP LanthaScreen™ Assay represents mean IC50 values based on several test results and may have reasonable deviations depending on the specific conditions and reagents used. Km is the Michaelis constant of an enzyme and is defined as the concentration of native substrate (ATP for a kinase) which permits the enzyme to achieve half Vmax (Vmax=rate of reaction when the enzyme is saturated with substrate). IC50 (half-maximal inhibitory concentration) represents the concentration of inhibitor required to inhibit LRRK2 kinase activity by 50%. Assays were performed in the presence of 134 μM ATP (Km ATP). Upon completion, the assay was stopped, and phosphorylated substrate detected with a terbium (Tb)-labeled anti-pERM antibody (cat. no. PV4898). The compound dose response was prepared by diluting a 10 mM stock of compound to a maximum concentration of 9.99 μM in 100% DMSO, followed by custom fold serial dilution in DMSO nine times. 20 nL of each dilution was spotted via a Labcyte Echo onto a 384-well black-sided plate (Corning 3575) followed by 15 μL of a 1.25 nM enzyme solution in 1× assay buffer (50 mM Tris pH 8.5, 10 mM MgCl2, 0.01% Brij-35, 1 mM EGTA, 2 mM dithiothreitol, 0.05 mM sodium orthovanadate). Following a 15-min incubation period at rt, the kinase reaction was started with the addition of 5 μL of 400 nM fluorescein-labeled LRRKtide® (LRRK2 phosphorylated ezrin/radixin/moesin (ERM)) peptide substrate and 134 μM ATP solution in 1× assay buffer. The reaction was allowed to progress at ambient temperature for 90 min. The reaction was then stopped by the addition of 20 μL of TR-FRET Dilution Buffer (Life Technologies, Carlsbad, CA) containing 2 nM Tb-labeled anti-phospho LRRKtide® (LRRK2 phosphorylated ezrin/radixin/moesin (ERM)) antibody and 10 mM EDTA (Life Technologies, Carlsbad, CA). After an incubation period of 1 h at rt, the plate was read on an EnVision® multimode plate reader (Perkin Elmer, Waltham, MA) with an excitation wavelength of 337 nm (Laser) and a reading emission at both 520 and 495 nm. Compound IC50 values were interpolated from nonlinear regression best-fits of the log of the final compound concentration, plotted as a function of the 520/495-nm emission ratio using activity base “Abase”). Abase uses a 4 parameter (4P) logistic fit based on the Levenberg-Marquardt algorithm. […]

Sequence of GST tagged truncated human mutant G2019S LRRK2 (Q5S007 970-2527 G2019S): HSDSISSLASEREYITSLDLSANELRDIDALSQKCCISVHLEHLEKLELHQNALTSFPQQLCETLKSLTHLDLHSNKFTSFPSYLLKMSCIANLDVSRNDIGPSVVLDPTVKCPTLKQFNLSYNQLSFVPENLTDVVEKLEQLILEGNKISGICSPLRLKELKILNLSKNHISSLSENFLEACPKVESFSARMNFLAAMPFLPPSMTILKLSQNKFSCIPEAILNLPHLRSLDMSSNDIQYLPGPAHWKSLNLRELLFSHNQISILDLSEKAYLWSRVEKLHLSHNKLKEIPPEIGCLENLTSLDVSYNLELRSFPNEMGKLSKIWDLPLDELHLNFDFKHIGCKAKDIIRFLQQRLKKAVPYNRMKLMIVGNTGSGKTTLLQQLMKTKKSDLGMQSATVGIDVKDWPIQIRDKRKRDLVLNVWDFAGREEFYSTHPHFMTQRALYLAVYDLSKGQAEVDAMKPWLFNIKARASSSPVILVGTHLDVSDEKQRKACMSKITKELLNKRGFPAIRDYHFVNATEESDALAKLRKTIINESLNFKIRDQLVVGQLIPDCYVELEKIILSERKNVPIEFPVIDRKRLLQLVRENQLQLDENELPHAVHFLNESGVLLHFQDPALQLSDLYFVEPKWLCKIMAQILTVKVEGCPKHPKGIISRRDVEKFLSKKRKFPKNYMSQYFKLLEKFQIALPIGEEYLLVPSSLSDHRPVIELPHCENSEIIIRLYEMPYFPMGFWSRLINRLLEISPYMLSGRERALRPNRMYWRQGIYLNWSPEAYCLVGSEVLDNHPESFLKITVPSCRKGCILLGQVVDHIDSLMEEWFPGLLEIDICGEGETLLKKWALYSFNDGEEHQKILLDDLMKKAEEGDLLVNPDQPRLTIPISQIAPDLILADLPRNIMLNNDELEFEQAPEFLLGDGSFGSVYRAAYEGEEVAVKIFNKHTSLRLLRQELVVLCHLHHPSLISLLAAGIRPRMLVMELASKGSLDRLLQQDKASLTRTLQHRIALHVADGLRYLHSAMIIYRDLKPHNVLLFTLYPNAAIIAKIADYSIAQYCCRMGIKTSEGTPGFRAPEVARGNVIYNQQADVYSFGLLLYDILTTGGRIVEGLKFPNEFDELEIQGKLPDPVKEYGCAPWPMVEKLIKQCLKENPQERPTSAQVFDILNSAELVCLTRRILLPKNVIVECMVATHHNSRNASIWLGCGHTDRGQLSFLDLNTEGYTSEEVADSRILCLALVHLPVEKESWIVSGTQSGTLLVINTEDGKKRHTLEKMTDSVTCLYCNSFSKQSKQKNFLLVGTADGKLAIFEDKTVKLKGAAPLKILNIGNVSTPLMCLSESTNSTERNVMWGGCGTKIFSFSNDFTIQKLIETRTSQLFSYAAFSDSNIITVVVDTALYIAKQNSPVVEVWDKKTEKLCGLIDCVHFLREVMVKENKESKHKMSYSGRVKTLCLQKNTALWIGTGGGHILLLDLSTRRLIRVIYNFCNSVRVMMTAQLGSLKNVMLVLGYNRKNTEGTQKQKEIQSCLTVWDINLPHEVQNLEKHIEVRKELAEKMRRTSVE

Row | Compound | LRRK2 pIC50
1 | COc1nn(C2CCC2)cc1NC(=O)c1csc(-c2cn[nH]c2)n1 [Example 1-22, N-(1-cyclobutyl-3-methoxy-1H-pyrazol-4-yl)-2-(1H-pyrazol-4-yl)-1,3-thiazole-4-carboxamide] | 7.76
2 | Cc1nn(C(C2CC2)C2CC2)cc1NC(=O)c1csc(-c2cn[nH]c2)n1 [Example 1-23, N-[1-(dicyclopropyl-methyl)-3-methyl-1H-pyrazol-4-yl]-2-(1H-pyrazol-4-yl)-1,3-thiazole-4-carboxamide] | 6.59
3 | O=C(Nc1cnn(-c2ccccc2)c1)c1csc(-c2cn[nH]c2)n1 [Example 1-24, N-(1-phenyl-1H-pyrazol-4-yl)-2-(1H-pyrazol-4-yl)-1,3-thiazole-4-carboxamide] | 7.56
4 | O=C(Nc1cnn(C2CC2)c1)c1csc(-c2cn[nH]c2)n1 [Example 1-25, N-(1-cyclopropyl-1H-pyrazol-4-yl)-2-(1H-pyrazol-4-yl)-1,3-thiazole-4-carboxamide] | 7.65
5 | Cn1cc(NC(=O)c2csc(-c3cn[nH]c3)n2)c(OCC(F)F)n1 [Example 1-26, N-[3-(2,2-difluoroethoxy)-1-methyl-1H-pyrazol-4-yl]-2-(1H-pyrazol-4-yl)-1,3-thiazole-4-carboxamide] | 7.56
6 | CSCC1(Cn2cc(NC(=O)c3csc(-c4cn[nH]c4)n3)cn2)CCC1 [Example 1-27, N-[1-({1-[(methylsulfanyl)methyl]cyclobu-tyl}methyl)-1H-pyrazol-4-yl]-2-(1H-pyrazol-4-yl)-1,3-thiazole-4-carboxamide] | 7.77
7 | COc1nn(Cc2nnc3n2CCCCC3)cc1NC(=O)c1csc(-c2cn[nH]c2)n1 [Example 1-28, N-[3-methoxy-1-(6,7,8,9-tetrahydro-5H-[1,2,4]triazolo[4,3-a]azepin-3-ylmethyl)-1H-pyrazol-4-yl]-2-(1H-pyrazol-4-yl)-1,3-thiazole-4-carboxamide] | 6.95
8 | COCC1(Cn2cc(NC(=O)c3csc(-c4cn[nH]c4)n3)cn2)CCC1 [Example 1-29, N-(1-{[1-(methoxymethyl)cyclobutyl]methyl}-1H-pyrazol-4-yl)-2-(1H-pyrazol-4-yl)-1,3-thiazole-4-carboxamide] | 7.82
9 | Cn1cc(NC(=O)c2csc(-c3cn[nH]c3)n2)c(Oc2ccccc2)n1 [Example 1-30, N-(1-methyl-3-phenoxy-1H-pyrazol-4-yl)-2-(1H-pyrazol-4-yl)-1,3-thiazole-4-carboxamide] | 7.78
10 | Cn1cc(-c2nn(C)cc2NC(=O)c2csc(-c3cn[nH]c3)n2)cn1 [Example 1-31, N-(1,1′-dimethyl-1H,1′H-3,4′-bipyrazol-4-yl)-2-(1H-pyrazol-4-yl)-1,3-thiazole-4-carboxamide] | 7.95
11 | CC1(C)CC(Cn2cc(NC(=O)c3csc(-c4cn[nH]c4)n3)cn2)C1 [Example 1-32, N-{1-[(3,3-dimethylcyclobu-tyl)methyl]-1H-pyrazol-4-yl}-2-(1H-pyrazol-4-yl)-1,3-thiazole-4-carboxamide] | 8.00
12 | O=C(Nc1cnn(C2CCC2)c1)c1coc(-c2cn[nH]c2)n1 [Example 1-33, N-(1-cyclobutyl-1H-pyrazol-4-yl)-2-(1H-pyrazol-4-yl)-1,3-oxazole-4-carboxamide] | 7.13
13 | CC1(Cn2cc(NC(=O)c3csc(-c4cn[nH]c4)n3)cn2)CCC1 [Example 1-34, N-{1-[(1-methylcyclobu-tyl)methyl]-1H-pyrazol-4-yl}-2-(1H-pyrazol-4-yl)-1,3-thiazole-4-carboxamide] | 7.92
14 | O=C(Nc1cnn(CC2CC(F)(F)C2)c1)c1csc(-c2cn[nH]c2)n1 [Example 1-35, N-{1-[(3,3-difluorocyclobu-tyl)methyl]-1H-pyrazol-4-yl}-2-(1H-pyrazol-4-yl)-1,3-thiazole-4-carboxamide] | 7.77
15 | CN(C)C(=O)c1nn(C)cc1NC(=O)c1csc(-c2cn[nH]c2)n1 [Example 1-36, N-[3-(dimethylcarba-moyl)-1-methyl-1H-pyrazol-4-yl]-2-(1H-pyrazol-4-yl)-1,3-thiazole-4-carboxamide] | 7.25
16 | COc1nn(C2CC2)cc1NC(=O)c1csc(-c2cn[nH]c2)n1 [Example 1-37, N-(1-cyclopropyl-3-methoxy-1H-pyrazol-4-yl)-2-(1H-pyrazol-4-yl)-1,3-thiazole-4-carboxamide] | 7.51
17 | O=C(Nc1cn(C2CC2)nc1C(F)F)c1csc(-c2cn[nH]c2)n1 [Example 1-38, N-[1-cyclopropyl-3-(difluoromethyl)-1H-pyrazol-4-yl]-2-(1H-pyrazol-4-yl)-1,3-thiazole-4-carboxamide] | 8.23
18 | CC(C)n1cc(NC(=O)c2coc(-c3cn[nH]c3)n2)cn1 [Example 1-39, N-[1-(1-methylethyl)-1H-pyrazol-4-yl]-2-(1H-pyrazol-4-yl)-1,3-oxazole-4-carboxamide] | 6.36
19 | Cn1cc(NC(=O)c2csc(-c3cn[nH]c3)n2)c(C(F)(F)F)n1 [Example 1-40, N-[1-methyl-3-(trifluoromethyl)-1H-pyrazol-4-yl]-2-(1H-pyrazol-4-yl)-1,3-thiazole-4-carboxamide] | 7.10
20 | Cc1nn(C)cc1NC(=O)c1csc(-c2cn[nH]c2)n1 [Example 1-41, N-(1,3-dimethyl-1H-pyrazol-4-yl)-2-(1H-pyrazol-4-yl)-1,3-thiazole-4-carboxamide] | 7.23
21 | Cn1cc(NC(=O)c2csc(-c3cn[nH]c3)n2)c(C2CC2)n1 [Example 1-42, N-(3-cyclopropyl-1-methyl-1H-pyrazol-4-yl)-2-(1H-pyrazol-4-yl)-1,3-thiazole-4-carboxamide] | 7.74
22 | O=C(Nc1cnn(CC2(F)CCC2)c1)c1csc(-c2cn[nH]c2)n1 [Example 1-43, N-{1-[(1-fluorocyclobutyl)methyl]-1H-pyrazol-4-yl}-2-(1H-pyrazol-4-yl)-1,3-thiazole-4-carboxamide] | 7.64
23 | CS(=O)(=O)CC1(Cn2cc(NC(=O)c3csc(-c4cn[nH]c4)n3)cn2)CCC1 [Example 1-44, N-[1-({1-[(methylsulfonyl)methyl]cyclobutyl}methyl)-1H-pyrazol-4-yl]-2-(1H-pyrazol-4-yl)-1,3-thiazole-4-carboxamide] | 7.91
24 | O=C(Nc1cnn(Cc2ccc(F)cc2)c1)c1coc(-c2cn[nH]c2)n1 [Example 1-45, N-[1-(4-fluorobenzyl)-1H-pyrazol-4-yl]-2-(1H-pyrazol-4-yl)-1,3-oxazole-4-carboxamide] | 6.77
25 | CC(C)n1cc(NC(=O)c2csc(-c3cn[nH]c3)n2)c(OCC(F)F)n1 [Example 1-46, N-[3-(2,2-difluoroethoxy)-1-(1-methylethyl)-1H-pyrazol-4-yl]-2-(1H-pyrazol-4-yl)-1,3-thiazole-4-carboxamide] | 7.57
26 | CC(C1CC1)n1cc(NC(=O)c2csc(-c3cn[nH]c3)n2)c(C(F)F)n1 (stereo not shown) [Example 3-1, N-(1-(1-Cyclopropylethyl)-3-(difluoromethyl)-1H-pyrazol-4-yl)-2-(1H-pyrazol-4-yl)thiazole-4-carboxamide] | 7.27
27 | O=C(Nc1cn(C2CCC2)nc1C1CC1)c1csc(-c2cn[nH]c2)n1 [Example 3-2, N-(1-cyclobutyl-3-cyclopropyl-1H-pyrazol-4-yl)-2-(1H-pyrazol-4-yl)-1,3-thiazole-4-carboxamide] | 8.35
28 | O=C(Nc1cnn(C2CCC2)c1C1CC1)c1csc(-c2cn[nH]c2)n1 [Example 3-3, N-(1-cyclobutyl-5-cyclopropyl-1H-pyrazol-4-yl)-2-(1H-pyrazol-4-yl)-1,3-thiazole-4-carboxamide] | 7.16

From patent US20240174679A1, “HETEROAROYL AMIDES AS LRRK2 INHIBITORS, PHARMACEUTICAL COMPOSITIONS, AND USES THEREOF” (MERCK SHARP & DOHME LLC, priority 2021, published 2024)
